In the CheMixHub viscosity set:
± gives the uncertainty stated by the source.

Assay: xn = mol fraction of the nth substance listed

N[C@@H](Cc1c[nH]cn1)C(=O)O + O
viscosity (293.15 K, 101 kPa, x1 = 0.005413): 1.128 ± 0.027 mPa·s | viscosity (298.15 K, 100 kPa, x1 = 0.000193): 0.8927 ± 0.035 mPa·s | viscosity (298.15 K, 100 kPa, x1 = 0.00027): 0.898 ± 0.06 mPa·s | viscosity (298.15 K, 100 kPa, x1 = 0.00036): 0.899 ± 0.011 mPa·s | viscosity (298.15 K, 100 kPa, x1 = 0.000403): 0.895 ± 0.035 mPa·s | viscosity (298.15 K, 100 kPa, x1 = 0.00063): 0.904 ± 0.06 mPa·s | viscosity (298.15 K, 100 kPa, x1 = 0.00072): 0.907 ± 0.011 mPa·s | viscosity (298.15 K, 100 kPa, x1 = 0.00074): 0.8987 ± 0.035 mPa·s | viscosity (298.15 K, 100 kPa, x1 = 0.00081): 0.907 ± 0.06 mPa·s | viscosity (298.15 K, 100 kPa, x1 = 0.00099): 0.91 ± 0.06 mPa·s | viscosity (298.15 K, 100 kPa, x1 = 0.00117): 0.913 ± 0.06 mPa·s | viscosity (298.15 K, 100 kPa, x1 = 0.00171): 0.921 ± 0.061 mPa·s | viscosity (298.15 K, 100 kPa, x1 = 0.001798): 0.9349 ± 0.012 mPa·s | viscosity (298.15 K, 100 kPa, x1 = 0.0018): 0.927 ± 0.011 mPa·s | viscosity (298.15 K, 100 kPa, x1 = 0.002157): 0.9434 ± 0.012 mPa·s | viscosity (298.15 K, 100 kPa, x1 = 0.002516): 0.9518 ± 0.012 mPa·s | viscosity (298.15 K, 100 kPa, x1 = 0.002876): 0.9604 ± 0.012 mPa·s | viscosity (298.15 K, 101 kPa, x1 = 0.00027): 0.898 ± 0.021 mPa·s | viscosity (298.15 K, 101 kPa, x1 = 0.00063): 0.9034 ± 0.021 mPa·s | viscosity (298.15 K, 101 kPa, x1 = 0.0013): 0.9127 ± 0.021 mPa·s | viscosity (298.15 K, 101 kPa, x1 = 0.00207): 0.9208 ± 0.021 mPa·s | viscosity (298.15 K, 101.3 kPa, x1 = 0.0004504): 0.898 ± 0.08 mPa·s | viscosity (298.15 K, 101.3 kPa, x1 = 0.0008971): 0.903 ± 0.08 mPa·s | viscosity (298.15 K, 101.3 kPa, x1 = 0.001791): 0.913 ± 0.08 mPa·s | viscosity (298.15 K, 101.3 kPa, x1 = 0.002688): 0.924 ± 0.08 mPa·s | viscosity (303.15 K, 100 kPa, x1 = 0.00036): 0.804 ± 0.01 mPa·s | viscosity (303.15 K, 100 kPa, x1 = 0.00045): 0.807 ± 0.06 mPa·s | viscosity (303.15 K, 100 kPa, x1 = 0.00054): 0.807 ± 0.01 mPa·s | viscosity (303.15 K, 100 kPa, x1 = 0.00108): 0.817 ± 0.01 mPa·s | viscosity (303.15 K, 100 kPa, x1 = 0.00126): 0.821 ± 0.01 mPa·s | viscosity (303.15 K, 100 kPa, x1 = 0.00144): 0.827 ± 0.01 mPa·s | viscosity (303.15 K, 100 kPa, x1 = 0.00153): 0.824 ± 0.06 mPa·s | viscosity (303.15 K, 100 kPa, x1 = 0.00162): 0.827 ± 0.01 mPa·s | viscosity (303.15 K, 100 kPa, x1 = 0.002157): 0.8407 ± 0.01 mPa·s | viscosity (303.15 K, 100 kPa, x1 = 0.002516): 0.8474 ± 0.01 mPa·s | viscosity (303.15 K, 100 kPa, x1 = 0.002876): 0.8544 ± 0.011 mPa·s | viscosity (303.15 K, 101 kPa, x1 = 0.00027): 0.8035 ± 0.021 mPa·s | viscosity (303.15 K, 101 kPa, x1 = 0.00063): 0.8079 ± 0.021 mPa·s | viscosity (303.15 K, 101 kPa, x1 = 0.0013): 0.8152 ± 0.021 mPa·s | viscosity (303.15 K, 101 kPa, x1 = 0.00243): 0.8255 ± 0.021 mPa·s | viscosity (303.15 K, 101 kPa, x1 = 0.003563): 0.8636 ± 0.021 mPa·s | viscosity (303.15 K, 101 kPa, x1 = 0.005413): 0.8992 ± 0.021 mPa·s | viscosity (303.15 K, 101.3 kPa, x1 = 0.0004504): 0.804 ± 0.08 mPa·s | viscosity (303.15 K, 101.3 kPa, x1 = 0.002239): 0.824 ± 0.08 mPa·s | viscosity (308.15 K, 100 kPa, x1 = 0.00027): 0.727 ± 0.06 mPa·s | viscosity (308.15 K, 100 kPa, x1 = 0.00054): 0.727 ± 0.009 mPa·s | viscosity (308.15 K, 100 kPa, x1 = 0.00135): 0.743 ± 0.06 mPa·s | viscosity (308.15 K, 100 kPa, x1 = 0.00143): 0.74 ± 0.009 mPa·s | viscosity (308.15 K, 100 kPa, x1 = 0.00144): 0.7434 ± 0.0092 mPa·s | viscosity (308.15 K, 100 kPa, x1 = 0.00171): 0.748 ± 0.06 mPa·s
